Tests used:
[1] = biological target: T1, BchL (Cereibacter sphaeroides, UniProt Q9RFD6); test: EPR of the [4Fe-4S] cluster; format: binding; conditions: 40 µM BchL, 3 mM ADP, 1.7 mM dithionite
T1 construct: full-length with N-terminal 6xHis tag and TEV site; recombinant, plasmid-expressed; anaerobically purified; homodimer bridged by one [4Fe-4S] cluster

[2] = biological target: T2, BchL (Cereibacter sphaeroides, UniProt Q9RFD6, S17A); test: hydrogen-deuterium exchange mass spectrometry; format: binding; conditions: 2 mM ATP, 10 mM MgCl2, pD 7.5, anaerobic
T2 construct: full-length with N-terminal 6xHis tag and TEV site; recombinant, plasmid-expressed; anaerobically purified; homodimer bridged by one [4Fe-4S] cluster

[3] = biological target: T3, BchL (Cereibacter sphaeroides, UniProt Q9RFD6, D180N/D182N); test: nitrocellulose filter binding; conditions: labelled compound (α32P-ATP tracer); 4 µM BchL, 1 mM ATP, 10 mM MgCl2, pH 7.5, 25 °C; stoichiometry, no affinity constant
T3 construct: full-length with N-terminal 6xHis tag and TEV site; recombinant, plasmid-expressed; anaerobically purified; homodimer bridged by one [4Fe-4S] cluster

[4] = biological target: T4, linked-BchL (L1-L2) (Cereibacter sphaeroides, UniProt Q9RFD6); test: nitrocellulose filter binding; conditions: labelled compound (α32P-ATP tracer); 4 µM BchL, 1 mM ATP, 10 mM MgCl2, pH 7.5, 25 °C; stoichiometry, no affinity constant
T4 construct: N-terminal 6xHis tag and TEV site
Source text: nitrocellulose filter binding on linked-BchL (L1-L2) | linked-BchL with unaltered ATP-binding sites ([…]) bind ATP to similar extents

[5] = biological target: T5, linked-BchL (L1-L2) (Cereibacter sphaeroides, UniProt Q9RFD6, K44A); test: nitrocellulose filter binding; conditions: labelled compound (32P-ATP tracer); 1 mM ATP, 10 mM MgCl2, pH 7.5, 25 °C; one of two sites mutated
T5 construct: N-terminal 6xHis tag and TEV site

[6] = biological target: T1, BchL; test: nitrocellulose filter binding; conditions: labelled compound (α32P-ATP tracer); 4 µM BchL, 1 mM ATP, 10 mM MgCl2, pH 7.5, 25 °C; stoichiometry, no affinity constant

T1 sequence (Q9RFD6 whole entry): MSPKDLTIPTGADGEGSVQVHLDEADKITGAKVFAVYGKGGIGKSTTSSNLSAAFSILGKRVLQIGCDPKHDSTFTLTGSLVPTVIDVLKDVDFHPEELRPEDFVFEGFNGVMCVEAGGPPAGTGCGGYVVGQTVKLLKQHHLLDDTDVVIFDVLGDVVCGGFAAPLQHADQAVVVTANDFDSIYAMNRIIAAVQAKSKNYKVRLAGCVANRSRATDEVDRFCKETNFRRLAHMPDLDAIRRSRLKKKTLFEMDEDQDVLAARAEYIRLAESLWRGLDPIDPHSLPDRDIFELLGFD
T4 sequence (Q9RFD6 whole entry): as above
T3 sequence (Q9RFD6 whole entry D180N/D182N): as the sequence (Q9RFD6 whole entry) above, with D180N, D182N counted along it
T5 sequence (Q9RFD6 whole entry K44A): as the sequence (Q9RFD6 whole entry) above, with K44A counted along it
T2 sequence (Q9RFD6 whole entry S17A): as the sequence (Q9RFD6 whole entry) above, with S17A counted along it

| SMILES | EPR of the [4Fe-4S] cluster [1] | hydrogen-deuterium exchange mass spectrometry [2] | ATP bound per BchL dimer [3] | nitrocellulose filter binding [4] | nitrocellulose filter binding [5] | ATP bound per BchL dimer [6] |
| --- | --- | --- | --- | --- | --- | --- |
| Nc1ncnc2c1ncn2[C@@H]1O[C@H](COP(=O)(O)OP(=O)(O)O)[C@@H](O)[C@H]1O [ADP] | with ADP, the proportion of the FeS^A species was diminished by a factor of two | – | – | – | – | – |
| Nc1ncnc2c1ncn2[C@@H]1O[C@H](COP(=O)(O)OP(=O)(O)OP(=O)(O)O)[C@@H](O)[C@H]1O [ATP] | – | Both BchL and BchL^S17A show similar patterns of reduced deuteration upon binding to ATP | ~ 2 ATP per dimer | linked-BchL with unaltered ATP-binding sites (L1L2) bind ATP to similar extents | When only one of the two ATP binding sites is mutated (L1^KA-L2), partial ATP binding is observed | ~ 2 ATP per dimer |
